Data reported in BigSolDB 2.1.

Cc1cc(C)c(C(=O)P(=O)(C(=O)c2c(C)cc(C)cc2C)c2ccccc2)c(C)c1
Settings | solubility (mole fraction)
in acetonitrile, 295.4 K | 0.00463
in acetonitrile, 303.2 K | 0.00793
in acetonitrile, 308 K | 0.0108
in acetonitrile, 313.3 K | 0.0154
in acetonitrile, 318.1 K | 0.0225
in acetonitrile, 323.2 K | 0.03
in acetonitrile, 328.1 K | 0.0421
in acetonitrile, 333.2 K | 0.0611
in acetonitrile, 338.1 K | 0.0863
in cyclohexane, 295.4 K | 0.0016
in cyclohexane, 303.2 K | 0.00239
in cyclohexane, 308.3 K | 0.00323
in cyclohexane, 313.1 K | 0.00414
in cyclohexane, 318.2 K | 0.00542
in cyclohexane, 323.4 K | 0.00732
in cyclohexane, 328.1 K | 0.00966
in cyclohexane, 333.2 K | 0.0123
in cyclohexane, 338.1 K | 0.017
in cyclohexane, 343.3 K | 0.0217
in ethanol, 295.4 K | 0.00372
in ethanol, 303.2 K | 0.00627
in ethanol, 307.2 K | 0.00827
in ethanol, 313.1 K | 0.0119
in ethanol, 318 K | 0.0161
in ethanol, 324.1 K | 0.0239
in ethanol, 328.3 K | 0.0326
in ethanol, 333.2 K | 0.0471
in ethyl acetate, 295.4 K | 0.0178
in ethyl acetate, 303.2 K | 0.0259
in ethyl acetate, 307.9 K | 0.0326
in ethyl acetate, 313.2 K | 0.0406
in ethyl acetate, 318.2 K | 0.0508
in ethyl acetate, 323.3 K | 0.064
in ethyl acetate, 328.2 K | 0.0842
in ethyl acetate, 333 K | 0.103
in ethyl acetate, 338.1 K | 0.127
in ethyl acetate, 343.2 K | 0.16
in isopropanol, 295.4 K | 0.00278
in isopropanol, 305.2 K | 0.0055
in isopropanol, 308.2 K | 0.0068
in isopropanol, 313.3 K | 0.0098
in isopropanol, 318 K | 0.0137
in isopropanol, 324.1 K | 0.0205
in isopropanol, 328.1 K | 0.0281
in isopropanol, 333.2 K | 0.04
in isopropanol, 338.3 K | 0.0556
in isopropanol, 343.2 K | 0.0793
in methanol, 295.4 K | 0.00235
in methanol, 303.2 K | 0.00434
in methanol, 308.3 K | 0.00629
in methanol, 313.1 K | 0.00909
in methanol, 318.2 K | 0.0134
in methanol, 323.4 K | 0.0195
in methanol, 328 K | 0.0283
in methanol, 333.2 K | 0.0427
in n-hexane, 295.4 K | 0.00151
in n-hexane, 303.2 K | 0.00218
in n-hexane, 308.1 K | 0.00277
in n-hexane, 313.2 K | 0.00323
in n-hexane, 318.1 K | 0.00389
in n-hexane, 322.9 K | 0.00442
in n-hexane, 328.1 K | 0.00525
in n-hexane, 333.2 K | 0.00635
